“And” between values parts separate entries of the source, which are not always exact repeats. Equal entries are not always repeated.
Row | melting point | Structure (SMILES)
1 | 160 °C | Cc1ncc(CO)c(CO)c1O [Pyridoxine]
2 | 234 °C | CCc1nc(N)nc(N)c1-c1ccc(Cl)cc1 [Pyrimethamine]
3 | 11.8 °C | CC(=O)C(=O)O [Pyruvic acid]
4 | 16 °C | C[C@@H](O)[C@@H](C)O [R,R-2,3-butanediol]
5 | 125 °C | C[C@@H]1O[C@H](OC[C@@H]2O[C@H](Oc3c(-c4ccc(O)c(O)c4)oc4cc(O)cc(O)c4c3=O)[C@@H](O)[C@H](O)[C@H]2O)[C@@H](O)[C@H](O)[C@H]1O [Rutin]
6 | 69 °C | CCCC(=O)OCSc1ncnc2c1ncn2COC(=O)CCC [S6,9-Bis(butanoyloxymethyl)-6-mercaptopurine]
7 | 158 °C | CC(C)(C)NCC(O)c1ccc(O)c(CO)c1 (centres undefined) [Salbutamol]
8 | 142 °C | NC(=O)c1ccccc1O [Salicylamide]
9 | -31 °C | C=Cc1ccccc1 [Styrene]
10 | 182 °C | CC(=O)NS(=O)(=O)c1ccc(N)cc1 [Sulfacetamide]
11 | 236 °C | Cc1ccnc(NS(=O)(=O)c2ccc(N)cc2)n1 [Sulfamerazine]
12 | 196 °C | Cc1cc(C)nc(NS(=O)(=O)c2ccc(N)cc2)n1 [Sulfamethazine] [listing 1 of 2 here]
13 | 198 °C | Cc1cc(C)nc(NS(=O)(=O)c2ccc(N)cc2)n1 [Sulfamethazine] [listing 2 of 2 here]
14 | 220 °C | O=C(O)c1cc(/N=N/c2ccc(S(=O)(=O)Nc3ccccn3)cc2)ccc1O [Sulfasalazine]
15 | 194 °C | Cc1noc(NS(=O)(=O)c2ccc(N)cc2)c1C [Sulfisoxazole]
16 | 182 °C | CC[C@@H]1OC(=O)[C@H](C)C(=O)[C@H](C)[C@@H](O[C@@H]2O[C@H](C)C[C@H](N(C)C)[C@H]2O)[C@](C)(OC)C[C@@H](C)C(=O)[C@H](C)[C@H]2N(CCCCn3cnc(-c4cccnc4)c3)C(=O)O[C@@]12C [Telithromycin]
17 | 120 °C | CC(C)(C)NCC(O)c1cc(O)cc(O)c1 (centres undefined) [Terbutaline]
18 | 226 °C | N#Cc1ccc(C#N)cc1 [Terephthalonitrile]
19 | 9 °C | CCCCCCCCCCCCCCc1ccccc1 [Tetradecylbenzene]
20 | 275 °C | O=C1CCC(N2C(=O)c3ccccc3C2=O)C(=O)N1 (centres undefined) [Thalidomide]
21 | 274 °C | Cn1c(=O)c2nc[nH]c2n(C)c1=O [Theophylline]
22 | -110 °C | O=S(F)F [Thionyl difluoride]
23 | -38 °C | c1ccsc1 [Thiophene]
24 | 176 °C | NC(N)=S [Thiourea]
25 | 188 °C | Cc1cn([C@H]2C[C@H](O)[C@@H](CO)O2)c(=O)[nH]c1=O [Thymidine]

Row | melting point | Structure (SMILES)
26 | 128 °C | CCS(=O)(=O)CCn1c([N+](=O)[O-])cnc1C [Tinidazole]
27 | 109 °C | CN(C)CCOc1ccc(/C(=C(/CCCl)c2ccccc2)c2ccccc2)cc1 [Toremifene]
28 | 181 °C | CC(C=CC=C(C)/C=C/C1=C(C)CCCC1(C)C)=CC(=O)O [Tretinoin]
29 | 306 °C | Nc1nc(N)c2nc(-c3ccccc3)c(N)nc2n1 [Triamterene]
30 | -64 °C | [2H]C(Cl)(Cl)Cl [Trichloro(~2~H)methane]
31 | 24 °C | CCCCCCCCCCCC(C)=O [Tridecan-2-one]
32 | -5 °C | CCCCCCCCCCCCC [Tridecane]
33 | -15 °C | O=C(O)C(F)(F)F [Trifluoroacetic acid]
34 | -63 °C | O=C(OC(=O)C(F)(F)F)C(F)(F)F [Trifluoroacetic anhydride]
35 | -34 °C | COB(OC)OC [Trimethyl borate]
36 | 199 °C | c1ccc2c(c1)c1ccccc1c1ccccc21 [Triphenylene]
37 | 72 °C | CCCCCCCCCCCCCCCCCCCCCCCCCCCCCCCCC [Tritriacontane]
38 | 203 °C | CC(C)(C)NC(=O)C(c1ccccc1)N(Cc1ccco1)C(=O)CNC(=O)OC(C)(C)C (centres undefined) [Ugi product 206B(UC)]
39 | -26 °C | CCCCCCCCCCC [Undecane]
40 | -91.5 °C | CCCCC=O [Valeraldehyde]
41 | 116 °C | CCCCC(=O)OCC(=O)[C@]1(O)Cc2c(O)c3c(c(O)c2[C@@H](OC2CC(NC(=O)C(F)(F)F)C(O)C(C)O2)C1)C(=O)c1c(OC)cccc1C3=O (some centres undefined) [Valrubicin]
42 | 139 °C | COc1cc(C(=O)NS(=O)(=O)c2ccccc2C)ccc1Cc1cn(C)c2ccc(NC(=O)OC3CCCC3)cc12 [Zafirlukast]
43 | 178 °C | Cc1cc(CC(=O)O)n(C)c1C(=O)c1ccc(Cl)cc1 [Zomepirac]
44 | 61 °C | CSC(SC)=C(C#N)C#N [[Bis(Methylthio)Methylene]Malononitrile]
45 | -62 °C | CC1=CCC2CC1C2(C)C (centres undefined) [a-pinene]
46 | 149 °C | O=C(O)COC(=O)Cc1ccccc1Nc1c(Cl)cccc1Cl [aceclofenac]
47 | 197 °C | CC(=O)NC(CCC(N)=O)C(=O)O (centres undefined) [aceglutamide]
48 | 150 °C | COc1ccc2c(c1)c(CC(=O)OCC(=O)O)c(C)n2C(=O)c1ccc(Cl)cc1 [acemetacin]
49 | 170 °C | CC(=O)Nc1ccc(O)cc1 [acetaminophen]
50 | 114 °C | CC(=O)Nc1ccccc1 [acetanilide]

Row | melting point | Structure (SMILES)
51 | 17 °C | CC(=O)O [acetic acid]
52 | 17 °C | CC(=O)O [acetic_acid]
53 | -83 °C | COC(CC(C)=O)OC [acetylacetaldehyde dimethyl acetal]
54 | 109 °C | c1ccc2nc3ccccc3cc2c1 [acridine]
55 | 265 °C | Nc1nc2c(ncn2COCCO)c(=O)[nH]1 [acyclovir]
56 | 257 °C | O=C2/N=C(\Nc1n(cnc12)COCCO)N [acyclovir]
57 | 187 °C | NC(=O)C12CC3CC(CC(C3)C1)C2 [adamantane-1-carboxamide]
58 | 153 °C | O=C(O)CCCCC(=O)O [adipic acid]
59 | 292 °C | CC(N)C(=O)O (centres undefined) [alanine]
60 | 209 °C | CCCSc1ccc2[nH]c(NC(=O)OC)nc2c1 [albendazole]
61 | 210 °C | C=CCN1C(=O)C(CC(C)C)NC1=S (centres undefined) [albutoin]
62 | -99 °C | C=CCI [allyl iodide]
63 | 100 °C | O=C(O)C(Sc1ccccc1)c1ccccc1 (stereo not drawn) [alpha-(phenylthio)phenylacetic acid]
64 | 134 °C | O=C[C@@H](O)[C@@H](O)[C@@H](O)[C@H](O)CO [alpha-D-talose]
65 | 158 °C | O=c1cc(-c2ccccc2)oc2c1ccc1ccccc12 [alpha-naphthoflavone]
66 | 173 °C | O=C(O)/C(=C/c1ccccc1)c1ccccc1 [alpha-phenylcinnamic acid]
67 | 103 °C | NS(=O)(=O)Cc1ccccc1 [alpha-toluenesulfonamide]
68 | 109 °C | C=CCc1ccccc1OCC(O)CNC(C)C (centres undefined) [alprenolol]
69 | 116 °C | Nc1ccc2ccc3cccc4ccc1c2c34 [aminopyrene]
70 | 113 °C | Nc1ccc(OCCCCCN2C(=O)c3ccccc3C2=O)cc1 [amphotalide]
71 | 157 °C | O=C1c2ccccc2Cc2ccccc21 [anthrone]
72 | 228 °C | CCCC1C(=O)N2C(N(C)C)=Nc3ccc(C)cc3N2C1=O (centres undefined) [apazone]
73 | 133 °C | O=C(O)C=Cc1ccco1 [b-2-Furylacrylic Acid]
74 | 28 °C | ClCCOc1ccccc1 [b-chlorophenetole]
75 | 166 °C | O=C(NCCCCc1ccccc1)c1cc([N+](=O)[O-])cc([N+](=O)[O-])c1 [benzamide, 3,5-dinitro-N-(4-phenylbutyl)-]

Row | Structure (SMILES) | melting point
76 | C=CCC1([C@H](C)CCC)C(=O)NC(=O)NC1=O [Secobarbital] | 100 °C
77 | CCCC(C)(COC(N)=O)COC(N)=O [Sowell] | 104 °C
78 | O=S(=O)(O)Cl [Sulfurochloridic acid] | -80 °C
79 | O=S(=O)(O)F [Sulfurofluoridic acid] | -87.3 °C
80 | C[C@]12CC[C@H]3[C@@H](CCC4=CC(=O)CC[C@@]43C)[C@@H]1CC[C@@H]2O [Testosterone] [listing 1 of 2 here] | 154 °C
81 | C[C@]12CC[C@H]3[C@@H](CCC4=CC(=O)CC[C@@]43C)[C@@H]1CC[C@@H]2O [Testosterone] [listing 2 of 2 here] | 155 °C
82 | Cc1nnc2n1-c1ccc(Cl)cc1C(c1ccccc1Cl)=NC2 [Triazolam] [listing 1 of 2 here] | 234 °C
83 | Cc1nnc2n1-c1ccc(Cl)cc1C(c1ccccc1Cl)=NC2 [Triazolam] [listing 2 of 2 here] | 234 °C
84 | O=C(O)C(Cl)(Cl)Cl [Trichloroacetic acid] | 57 °C
85 | CC(=O)Cl [acetyl_chloride] | -112 °C
86 | C=CCO [allyl alcohol] | -129 °C
87 | C=CCBr [allyl bromide] | -119 °C
88 | C=CCCl [allyl chloride] | -135 °C
89 | C=CCN=C=S [allyl isothiocyanate] | -80 °C
90 | BrC(Br)c1ccccc1C(Br)Br [alpha,alpha,alpha',alpha'-tetrabromo-o-xylene] | 116 °C
91 | CCC1(CCC(C)C)C(=O)NC(=O)NC1=O [amobarbital] | 157 °C
92 | CC(=O)OC1CCC2C3CCC4CC=CCC4(C)C3CCC12C (centres undefined) [androst-2-en-17-yl acetate] | 94 °C
93 | CC12CCC3C(C(=O)CC4CC(=O)CCC43C)C1CCC2=O (centres undefined) [androstane-3,7,17-trione] | 232 °C
94 | CC12CCC3C(CCC4CC(=O)CCC43C)C1CCC2=O (centres undefined) [androstane-3,17-dione] | 132 °C
95 | Nc1ccccc1 [aniline] [listing 1 of 2 here] | -6 °C
96 | Nc1ccccc1 [aniline] [listing 2 of 2 here] | -6 °C (4×) and -6.2 °C (2×)
97 | Nc1ccccc1C(=O)OCC=Cc1ccccc1 [anthranilic acid cinnamyl ester] | 65 °C
98 | C=CCC1(C(C)C)C(=O)NC(=O)NC1=O [aprobarbital] | 143 °C
99 | CCNc1nc(Cl)nc(NC(C)C)n1 [atrazine] | 175 °C and 177 °C
100 | N(=N/c1ccccc1)c2ccccc2 [azobenzene] | 69 °C
101 | CCC1(CC)C(=O)NC(=O)NC1=O [barbital] | 190 °C
102 | O=C(CCCN1CCC(n2c(=O)[nH]c3ccccc32)CC1)c1ccc(F)cc1 [benperidol] [listing 1 of 2 here] | 171 °C
103 | O=C(CCCN1CCC(n2c(=O)[nH]c3ccccc32)CC1)c1ccc(F)cc1 [benperidol] [listing 2 of 2 here] | 170 °C
104 | O=Cc1ccccc1 [benzaldehyde] | -56.5 °C and -55.6 °C
